Laboratory results as given in patent publication US8686224B2, “Plant defense signal peptides” (priority 2005, dated 2014).

Assays:
[1] = system: P. syringae pv. tomato DC3000 (Pst DC3000); experiment: Pst DC3000 inoculation of Arabidopsis leaves with peptide pre-infiltration; type: in vivo, Pseudomonas syringae
Text: The resistance to P. irregulare requires the JA signaling pathway in Arabidopsis (Staswick et al, Plant J. 15: 747-754, 1998), and AtPep peptides induced PDF1.2, a marker gene for the JA response (Huffaker et al., Proc. Natl. Acad. Sci. USA 103: 10098-10103, Huffaker and Ryan, Proc. Natl. Acad. Sci. USA 104: 10732-10736, 2007). […] In order to examine this possibility, Arabidopsis plants were inoculated with P. syringae pv. tomato DC3000 (Pst DC3000) with or without AtPep1 pre-infiltration. Pst DC3000 was extracted from the infected leaves 4 days after infection and colony forming units (cfu/cm^2) were calculated. […] The reduction of Pst DC3000 growth was also not observed when the double mutant, pepr1-1/pepr2-1, was pre-infiltrated with AtPep1. […] Pre-infiltration of AtPep2-6 also attenuated Pst DC3000 growth to different degrees.
To assess the importance of AtPEPR1 and AtPEPR2 in the resistance to Pst DC3000 after infiltration of AtPep1, T-DNA insertional mutants were inoculated. When 1 μM AtPep1 was infiltrated into leaves one day prior to Pst DC3000 inoculation, the size of the necrotic regions were reduced in both wild type and single mutant lines, pepr1-1 and pepr2-1. […] Similar results were obtained when another set of mutant lines, pepr1-2, pepr2-2 and pepr1-2/pepr2-2, was used.

[2] = biological target: T1, 180 kD AtPep1-binding protein (AtPep1 receptor, At1g73080) (Arabidopsis thaliana, UniProt Q9SSL9); experiment: Photoaffinity labeling with 125I-azido-Cys-AtPep1, competition; conditions: microsomal membranes of wild type and control SALK plants, preincubated with 2.5 nM AtPep1
T1 construct: endogenous in cells
T1 sequence (Q9SSL9 29-1123): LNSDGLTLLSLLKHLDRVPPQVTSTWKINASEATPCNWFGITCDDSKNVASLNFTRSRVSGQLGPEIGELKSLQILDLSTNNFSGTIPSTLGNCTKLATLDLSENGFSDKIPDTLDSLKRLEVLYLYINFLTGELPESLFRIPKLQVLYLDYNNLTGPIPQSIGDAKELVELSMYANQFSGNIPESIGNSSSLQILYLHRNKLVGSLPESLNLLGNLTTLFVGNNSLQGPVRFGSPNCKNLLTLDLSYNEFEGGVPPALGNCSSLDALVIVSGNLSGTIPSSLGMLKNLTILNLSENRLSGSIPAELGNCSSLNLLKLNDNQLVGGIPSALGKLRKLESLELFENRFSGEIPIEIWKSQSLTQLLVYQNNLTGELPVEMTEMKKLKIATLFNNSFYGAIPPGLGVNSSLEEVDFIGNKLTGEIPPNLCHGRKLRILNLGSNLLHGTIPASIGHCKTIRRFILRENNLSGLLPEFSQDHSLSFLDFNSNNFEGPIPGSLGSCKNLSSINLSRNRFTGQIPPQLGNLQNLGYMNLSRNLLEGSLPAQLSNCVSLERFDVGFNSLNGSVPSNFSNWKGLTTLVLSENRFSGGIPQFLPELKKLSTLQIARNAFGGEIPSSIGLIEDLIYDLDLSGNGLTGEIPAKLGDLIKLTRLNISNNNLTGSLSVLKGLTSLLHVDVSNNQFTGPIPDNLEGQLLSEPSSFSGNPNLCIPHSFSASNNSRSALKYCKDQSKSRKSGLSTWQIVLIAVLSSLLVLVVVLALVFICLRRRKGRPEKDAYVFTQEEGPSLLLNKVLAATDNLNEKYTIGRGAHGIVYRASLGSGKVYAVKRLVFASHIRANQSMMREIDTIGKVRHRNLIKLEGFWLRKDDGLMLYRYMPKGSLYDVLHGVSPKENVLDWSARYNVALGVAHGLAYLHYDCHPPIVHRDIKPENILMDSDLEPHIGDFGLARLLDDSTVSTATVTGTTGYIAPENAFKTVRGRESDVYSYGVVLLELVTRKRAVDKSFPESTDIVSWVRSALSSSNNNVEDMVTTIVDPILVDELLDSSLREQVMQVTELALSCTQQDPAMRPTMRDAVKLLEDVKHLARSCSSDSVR
Experimental: Photoaffinity labeling. To 1 mL of cultured cells in darkness was added ^125I-azido-Cys-AtPep1 (0.25 nM final concentration as described above) and the cells were shaken for 10 min on an orbital shaker (160 rpm) at room temperature. The cells were transferred to a 1.5 mL glass tube, centrifuged at 10,000×g and the sedimented cells were dispersed in 1 mL cold MS medium containing 3% sucrose and centrifuged as above. This wash was repeated twice. The cells were resuspended in 1 mL MS medium and irradiated with UV-B for 10 min on ice to photoactivate the azido group to effect the crosslinking. The cells were washed with 1 mL MS medium, centrifuged as above, and resuspended in 400 μL of 5% SDS. The cells were disrupted by boiling for 30 min, and the insoluble debris was removed by centrifugation at 10,000×g. Proteins in the clear supernatant were precipitated by adding 1.25 volumes of methanol/chloroform (vol/vol). […]
Microsomal fractions were prepared from one-month-old plants by differential centrifugation as previously described (Scheer and Ryan, Proc. Natl. Acad. Sci. 99:9585-9590, 2002). […] The membranes were incubated for 60 min at approximately 4° C., irradiated with UV-B for 15 min, separated by SDS-PAGE, dried and analyzed by radioautography to identify labeled proteins.

[3] = biological target: T2, AtPep1 receptor (At1g73080, AtPEPR1) (Arabidopsis thaliana, UniProt Q9SSL9); experiment: Binding assay of 125I1-Tyr-AtPep1 with Arabidopsis suspension cultured cells
T2 sequence (Q9SSL9 29-1123): T1 sequence (Q9SSL9 29-1123)
Experimental: Binding assays. […] The filtered cells were washed three times with 5 mL of cold MS medium containing 3% sucrose, suspended in 1 mL MS medium containing 3% sucrose in a glass test tube, and analyzed for total radioactivity in a gamma-ray counter (Isodata 2020; Isodata Inc., Palatine, Ill.).

[4] = 1 μM one day prior, pepr1-1/pepr2-1

H-ATKVKAKQRGKEKVSSGRPGQHN-OH [AtPep1]
bacterial growth reduced to ([1]; 1 μM infiltrated one day prior to inoculation, wild type): 1/100 | bacterial growth reduced to ([1]; 1 μM one day prior, pepr1-1): 1/25 | colony growth in the double mutants [1, 4]: no decrease in colony growth | symptom development in double mutants [1, 4]: did not affect symptom development | bacterial growth reduced to ([1]; 1 μM one day prior, pepr2-1): 1/100 | size of the necrotic regions ([1]; 1 μM one day prior, wild type and single mutants pepr1-1 and pepr2-1): reduced | Pst DC3000 growth in double mutant pepr1-1/pepr2-1 ([1]; pre-infiltration): not observed | attenuation of Pst DC3000 in fad3,7,8, npr1-1 and sid2-2 mutants ([1]; pre-infiltration): differentially diminished | effect on Pst DC3000 growth compared with flg22 pre-infiltration ([1]; pre-infiltration, wild type): more effective than flg22 pre-infiltration | Pst DC3000 growth in leaves after pre-infiltration ([1]; wild type, cfu/cm^2 4 days after infection, AtPep1 10 nM solution): reduced Pst DC3000 growth in leaves | photoaffinity labeled proteins after preincubation [2]: absent | Kd [3]: 0.25 nM
